# Reference: patent US10202361B2, “Pyridazinones as herbicides” (E I DU PONT DE NEMOURS AND COMPANY, priority 2014, dated 2019)
# Like-named read-outs stand apart in the source and are kept apart here.
# What was measured:
# Assay type in all cases: in vivo
# [1] = system: crabgrass, large (large crabgrass Digitaria sanguinalis); assay: Test E pre-/postemergence greenhouse herbicide test; conditions: Preemergence, scale 0 to 100
# [2] = system: sedge, umbrella (small-flower umbrella sedge, Cyperus difformis); assay: Test B flooded paddy test; conditions: Cyperus difformis, 312 h; Flood, 125 g ai/ha; scale of 0 to 100, 0 is no effect, 100 is complete control; 13 to 15 d; read-out: Plant response rating, Sedge, Umbrella
# In short: (§1)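 Visual ratings, 0 meaning no effect and 100 complete control, were made relative to untreated controls 13–15 d after treatment in a greenhouse. Treatment was by addition to paddy water 3 cm above the soil, maintained for the test, on 2-leaf-stage plants.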
# rice (Oryza sativa) = assay: Test B flooded paddy test; conditions: Oryza sativa, 312 h; Flood, 125 g ai/ha; scale of 0 to 100, 0 is no effect, 100 is complete control; 13 to 15 d; read-out: Plant response rating, Rice
# In short: as §1
# [3] = system: ducksalad (Heteranthera limosa); assay: Test B flooded paddy test; conditions: Heteranthera limosa, 312 h; Flood, 125 g ai/ha; scale of 0 to 100, 0 is no effect, 100 is complete control; 13 to 15 d; read-out: Plant response rating, Ducksalad
# In short: as §1
# [4] = system: barnyardgrass (Echinochloa crus-galli); assay: Test B flooded paddy test; conditions: Echinochloa crus-galli, 312 h; Flood, 125 g ai/ha; scale of 0 to 100, 0 is no effect, 100 is complete control; 13 to 15 d; read-out: Plant response rating, Barnyardgrass
# In short: as §1
# [5] = system: johnsongrass (Sorghum halepense); assay: Test C pre-/postemergence greenhouse herbicide test; conditions: Sorghum halepense, Johnsongrass, read-out: Plant response rating; for pest or weed control at 31 g/ha: 31 g ai/ha; for pest or weed control at 62 g/ha: 62 g ai/ha; for pest or weed control at 125 g/ha: 125 g ai/ha; for pest or weed control at 250 g/ha: 250 g ai/ha
# In short: (§2)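 Visual ratings, 0 = no effect, 100 = complete control, vs untreated controls at 13–15 d. Pre: seeds in loam/sand. Post: 2–18 cm plants (1–4 leaf), peat/vermiculite mix. Surfactant-containing solvent formulation; greenhouse.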
# [6] = system: oilseed rape (Brassica napus); assay: as above; conditions: Oilseed Rape
# In short: as §2
# [7] = system: velvetleaf (Abutilon theophrasti); assay: as above; conditions: Abutilon theophrasti, Velvetleaf, read-out: Plant response rating; for pest or weed control at 62 g/ha: 62 g ai/ha; for pest or weed control at 125 g/ha: 125 g ai/ha; for pest or weed control at 250 g/ha: 250 g ai/ha
# In short: as §2
# [8] = system: foxtail, giant (giant foxtail, Setaria faberii); assay: as above; conditions: Setaria faberi, Foxtail, Giant, read-out: Plant response rating; for pest or weed control at 31 g/ha: 31 g ai/ha; for pest or weed control at 62 g/ha: 62 g ai/ha; for pest or weed control at 125 g/ha: 125 g ai/ha; for pest or weed control at 250 g/ha: 250 g ai/ha
# In short: as §2
# [9] = system: nutsedge, yellow (yellow nutsedge, Cyperus esculentus); assay: as above; conditions: Cyperus, Nutsedge, Yellow, read-out: Plant response rating; for pest or weed control at 31 g/ha: 31 g ai/ha; for pest or weed control at 62 g/ha: 62 g ai/ha; for pest or weed control at 125 g/ha: 125 g ai/ha; for pest or weed control at 250 g/ha: 250 g ai/ha
# In short: as §2
# [10] = system: nutsedge, yellow (yellow nutsedge, Cyperus esculentus); assay: Test E pre-/postemergence greenhouse herbicide test; conditions: Preemergence, scale 0 to 100
# [11] = system: chickweed (common chickweed, Stellaria media); assay: Test C postemergence greenhouse herbicide test
smiles,measurement,setting,value
"COc1cc(=O)n(-c2ccc(F)cc2)nc1Cc1ccnc(C(F)(F)F)c1 [Compound 17, 2-(4-fluorophenyl)-5-methoxy-6-[[2-(trifluoromethyl)-4-pyridinyl]methyl]-3 (2H)-pyridazinone]","Plant response rating: Crabgrass, Large",[1]; 16 g ai/ha,35
same,"Plant response rating: Crabgrass, Large",[1]; 31 g ai/ha,100
same,"Plant response rating: Crabgrass, Large",[1]; 62 g ai/ha,100
same,"Plant response rating: Crabgrass, Large",[1]; 125 g ai/ha,100
same,"Plant response rating: Crabgrass, Large",[1]; 250 g ai/ha,100
same,pest or weed control at 125 g/ha,[2],90%
same,plant injury at 125 g/ha,rice (Oryza sativa),70%
same,pest or weed control at 125 g/ha,[3],90%
same,pest or weed control at 125 g/ha,[4],90%
same,pest or weed control at 31 g/ha,"[5]; post-emergence, Postemergence",5%
same,pest or weed control at 62 g/ha,"[5]; post-emergence, Postemergence",5%
same,pest or weed control at 125 g/ha,"[5]; post-emergence, Postemergence",5%
same,pest or weed control at 250 g/ha,"[5]; post-emergence, Postemergence",65%
same,pest or weed control at 31 g/ha,"[5]; pre-emergence, Preemergence",70%
same,pest or weed control at 62 g/ha,"[5]; pre-emergence, Preemergence",95%
same,pest or weed control at 125 g/ha,"[5]; pre-emergence, Preemergence",98%
same,pest or weed control at 250 g/ha,"[5]; pre-emergence, Preemergence",100%
same,Plant response rating,"[6]; Postemergence, 31 g ai/ha",5
same,Plant response rating,"[6]; Postemergence, 62 g ai/ha",20
same,Plant response rating,"[6]; Postemergence, 125 g ai/ha",25
same,Plant response rating,"[6]; Preemergence, 31 g ai/ha",50
same,Plant response rating,"[6]; Preemergence, 62 g ai/ha",100
same,Plant response rating,"[6]; Preemergence, 125 g ai/ha",100
same,Plant response rating,"[6]; Preemergence, 250 g ai/ha",100
same,pest or weed control at 31 g/ha,"[7]; post-emergence, Postemergence, 31 g ai/ha",20%
same,pest or weed control at 62 g/ha,"[7]; post-emergence, Postemergence",20%
same,pest or weed control at 125 g/ha,"[7]; post-emergence, Postemergence",30%
same,pest or weed control at 250 g/ha,"[7]; post-emergence, Postemergence",45%
same,pest or weed control at 62 g/ha,"[7]; pre-emergence, Preemergence",75%
same,pest or weed control at 125 g/ha,"[7]; pre-emergence, Preemergence",100%
same,pest or weed control at 250 g/ha,"[7]; pre-emergence, Preemergence",100%
same,pest or weed control at 31 g/ha,"[8]; post-emergence, Postemergence",10%
same,pest or weed control at 62 g/ha,"[8]; post-emergence, Postemergence",10%
same,pest or weed control at 125 g/ha,"[8]; post-emergence, Postemergence",20%
same,pest or weed control at 250 g/ha,"[8]; post-emergence, Postemergence",45%
same,pest or weed control at 31 g/ha,"[8]; pre-emergence, Preemergence",100%
same,pest or weed control at 62 g/ha,"[8]; pre-emergence, Preemergence",100%
same,pest or weed control at 125 g/ha,"[8]; pre-emergence, Preemergence",100%
same,pest or weed control at 250 g/ha,"[8]; pre-emergence, Preemergence",100%
same,pest or weed control at 31 g/ha,"[9]; post-emergence, Postemergence",5%
same,pest or weed control at 62 g/ha,"[9]; post-emergence, Postemergence",5%
same,pest or weed control at 125 g/ha,"[9]; post-emergence, Postemergence",10%
same,pest or weed control at 250 g/ha,"[9]; post-emergence, Postemergence",10%
same,pest or weed control at 31 g/ha,"[9]; pre-emergence, Preemergence",20%
same,pest or weed control at 62 g/ha,"[9]; pre-emergence, Preemergence",30%
same,pest or weed control at 125 g/ha,"[9]; pre-emergence, Preemergence",55%
same,pest or weed control at 250 g/ha,"[9]; pre-emergence, Preemergence",75%
same,"Plant response rating: Nutsedge, Yellow",[10]; 16 g ai/ha,0
same,"Plant response rating: Nutsedge, Yellow",[10]; 31 g ai/ha,0
same,"Plant response rating: Nutsedge, Yellow",[10]; 62 g ai/ha,35
same,"Plant response rating: Nutsedge, Yellow",[10]; 125 g ai/ha,50
same,"Plant response rating: Nutsedge, Yellow",[10]; 250 g ai/ha,70
same,Plant response rating,[11]; 31 g ai/ha,70
same,Plant response rating,[11]; 62 g ai/ha,85
same,Plant response rating,[11]; 125 g ai/ha,85
same,Plant response rating,[11]; 250 g ai/ha,95
